Several values for one entry are separate records, joined by “and”; a condition that tells them apart may be missing. Equal entries are not always repeated. Inconclusive results and toxic doses are left out. Rule as the data show it: active = T/C of 150% or more; inactive = T/C below 125%.
Tested on: L1210 leukemia ip in BDF1 mice, survival T/C
Experiment: NCI In Vivo Anticancer Drug Screen. Data for tumor model L1210 Leukemia (intraperitoneal) in B6D2F1 (BDF1) mice
Conditions: endpoint: mean survival time, higher = longer survival
Outline: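 Read-out is survival time, reported as the treated-group measurement over the vehicle-control measurement.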

[1] = dose: 100.0 mg/kg/injection, schedule: Q01DX009 (ip), vehicle: Klucel (hydroxypropylcellulose) (HPC)
[2] = dose: 200.0 mg/kg/injection, schedule: Q01DX009 (ip), vehicle: Klucel (hydroxypropylcellulose) (HPC)
[3] = dose: 400.0 mg/kg/injection, schedule: Q01DX009 (ip), vehicle: Klucel (hydroxypropylcellulose) (HPC)
[4] = dose: 25.0 mg/kg/injection, schedule: Q04DX003 (ip), vehicle: saline
[5] = dose: 50.0 mg/kg/injection, schedule: Q04DX003 (ip), vehicle: saline
[6] = dose: 100.0 mg/kg/injection, schedule: Q04DX003 (ip), vehicle: Klucel (hydroxypropylcellulose) (HPC)
[7] = dose: 200.0 mg/kg/injection, schedule: Q04DX003 (ip), vehicle: Klucel (hydroxypropylcellulose) (HPC)
[8] = dose: 400.0 mg/kg/injection, schedule: Q04DX003 (ip), vehicle: Klucel (hydroxypropylcellulose) (HPC)
[9] = dose: 100.0 mg/kg/injection, schedule: Q01DX001 (ip), vehicle: carboxymethylcellulose (CMC)
[10] = dose: 200.0 mg/kg/injection, schedule: Q01DX001 (ip), vehicle: carboxymethylcellulose (CMC)
[11] = dose: 400.0 mg/kg/injection, schedule: Q01DX001 (ip), vehicle: carboxymethylcellulose (CMC)
[12] = dose: 100.0 mg/kg/injection, schedule: Q01DX009 (ip), vehicle: saline with Tween-80
[13] = dose: 200.0 mg/kg/injection, schedule: Q01DX009 (ip), vehicle: saline with Tween-80

Measured: T/C

CCCCCCCNC(=S)NNC(=O)c1ccncc1
inactive: [1] 97 % of control | [2] 100 % of control | [3] 100 % of control

Cc1ccc2c3nc4ccccc4c-3csc2c1
inactive: dose: 6.25 mg/kg/injection, schedule: Q01DX009 (ip), vehicle: saline 103 % of control | dose: 12.5 mg/kg/injection, schedule: Q01DX009 (ip), vehicle: saline 108 % of control and 103 % of control | dose: 12.5 mg/kg/injection, schedule: Q04DX003 (ip), vehicle: saline 93 % of control and 92 % of control | dose: 25.0 mg/kg/injection, schedule: Q01DX009 (ip), vehicle: saline 98 % of control and 93 % of control | [4] 93 % of control and 90 % of control | dose: 35.0 mg/kg/injection, schedule: Q01DX009 (ip), vehicle: saline 101 % of control and 86 % of control | [5] 87 % of control | dose: 55.0 mg/kg/injection, schedule: Q01DX009 (ip), vehicle: saline 93 % of control and 92 % of control

CC1(C)CC[N+]1(C)C
inactive: dose: 11.0 mg/kg/injection, schedule: Q04DX003 (ip), vehicle: saline 98 % of control and 104 % of control | dose: 12.0 mg/kg/injection, schedule: Q04DX003 (ip), vehicle: saline 96 % of control | dose: 16.0 mg/kg/injection, schedule: Q04DX003 (ip), vehicle: saline 94 % of control and 107 % of control | [4] 94 % of control and 104 % of control | dose: 40.0 mg/kg/injection, schedule: Q04DX003 (ip), vehicle: saline 102 % of control | [5] 110 % of control | dose: 60.0 mg/kg/injection, schedule: Q04DX003 (ip), vehicle: saline 92 % of control

CCOC(=O)CCCCCCCCCCNC(=O)NCc1ccccc1
inactive: dose: 100.0 mg/kg/injection, schedule: Q04DX002 (ip), vehicle: saline with Tween-80 90 % of control | dose: 200.0 mg/kg/injection, schedule: Q04DX002 (ip), vehicle: saline with Tween-80 87 % of control | dose: 400.0 mg/kg/injection, schedule: Q04DX002 (ip), vehicle: saline with Tween-80 97 % of control

O=C1CCCc2c1ccc1ccccc21
inactive: [1] 97 % of control | [6] 101 % of control | [7] 103 % of control | [3] 100 % of control | [8] 100 % of control

O=S(=O)(CS(=O)(=O)Oc1ccccc1)Oc1ccccc1
inactive: [9] 93 % of control | [10] 102 % of control | [11] 93 % of control

Nc1nc(N)c(N=Nc2ccc(S(=O)(=O)Nc3nccs3)cc2)cc1N=Nc1ccccc1
inactive: [9] 94 % of control | [10] 92 % of control | [11] 105 % of control

OC1CCCC/C1=C/c1ccccc1 (stereo not drawn)
inactive: [1] 101 % of control | [6] 103 % of control | [2] 101 % of control | [7] 101 % of control | [3] 101 % of control | [8] 95 % of control

Cc1ccc(N)cc1S(=O)(=O)F
inactive: dose: 75.0 mg/kg/injection, schedule: Q01DX001 (ip), vehicle: saline 107 % of control | dose: 150.0 mg/kg/injection, schedule: Q01DX001 (ip), vehicle: saline 98 % of control | dose: 300.0 mg/kg/injection, schedule: Q01DX001 (ip), vehicle: saline 103 % of control

COC(=N)c1ccc(C)c(I)c1
inactive: dose: 100.0 mg/kg/injection, schedule: Q04DX002 (ip), vehicle: Klucel (hydroxypropylcellulose) (HPC) 91 % of control | dose: 200.0 mg/kg/injection, schedule: Q04DX002 (ip), vehicle: Klucel (hydroxypropylcellulose) (HPC) 98 % of control | dose: 400.0 mg/kg/injection, schedule: Q04DX002 (ip), vehicle: Klucel (hydroxypropylcellulose) (HPC) 94 % of control

Nc1ccc(C(=O)Oc2ccc([N+](=O)[O-])cc2)cc1
inactive: dose: 100.0 mg/kg/injection, schedule: Q04DX003 (ip), vehicle: saline with Tween-80 98 % of control | dose: 200.0 mg/kg/injection, schedule: Q04DX003 (ip), vehicle: saline with Tween-80 88 % of control | dose: 400.0 mg/kg/injection, schedule: Q04DX003 (ip), vehicle: saline with Tween-80 86 % of control

Cc1cccc(C)c1NC(=O)OCCOc1ccc(Br)cc1
inactive: [12] 95 % of control | [13] 92 % of control | dose: 400.0 mg/kg/injection, schedule: Q01DX009 (ip), vehicle: saline with Tween-80 92 % of control

O=Cc1cscc1-c1cscc1C=O
inactive: dose: 50.0 mg/kg/injection, schedule: Q01DX009 (ip), vehicle: saline with Tween-80 91 % of control | [12] 95 % of control | [13] 98 % of control

CCOC(=O)N(CC)c1ccccc1
inactive: [1] 103 % of control | dose: 100.0 mg/kg/injection, schedule: Q04DX003 (ip), vehicle: saline 88 % of control | [2] 107 % of control | dose: 200.0 mg/kg/injection, schedule: Q04DX003 (ip), vehicle: saline 101 % of control | [3] 102 % of control | dose: 400.0 mg/kg/injection, schedule: Q04DX003 (ip), vehicle: saline 98 % of control

CCCCCCCc1cc(O)c2c3c(c(=O)oc2c1)CCC(C)C3 (stereo not drawn)
inactive: dose: 75.0 mg/kg/injection, schedule: Q04DX003 (ip), vehicle: Klucel (hydroxypropylcellulose) (HPC) 93 % of control | dose: 150.0 mg/kg/injection, schedule: Q04DX003 (ip), vehicle: Klucel (hydroxypropylcellulose) (HPC) 92 % of control | dose: 300.0 mg/kg/injection, schedule: Q04DX003 (ip), vehicle: Klucel (hydroxypropylcellulose) (HPC) 93 % of control

O=c1ccc([N+](=O)[O-])c[nH]1.[Ag]
inactive: dose: 6.25 mg/kg/injection, schedule: Q01DX009 (ip), vehicle: Klucel (hydroxypropylcellulose) (HPC) 86 % of control | dose: 12.5 mg/kg/injection, schedule: Q01DX009 (ip), vehicle: Klucel (hydroxypropylcellulose) (HPC) 86 % of control | dose: 12.5 mg/kg/injection, schedule: Q04DX003 (ip), vehicle: Klucel (hydroxypropylcellulose) (HPC) 88 % of control | dose: 25.0 mg/kg/injection, schedule: Q01DX009 (ip), vehicle: Klucel (hydroxypropylcellulose) (HPC) 95 % of control | dose: 25.0 mg/kg/injection, schedule: Q04DX003 (ip), vehicle: Klucel (hydroxypropylcellulose) (HPC) 99 % of control

CC12CC3CC(C)(C1)CC(SCCN=C(N)CCl)(C3)C2
inactive: dose: 10.0 mg/kg/injection, schedule: Q04DX002 (ip), vehicle: Klucel (hydroxypropylcellulose) (HPC) 105 % of control | dose: 20.0 mg/kg/injection, schedule: Q04DX002 (ip), vehicle: Klucel (hydroxypropylcellulose) (HPC) 102 % of control | dose: 40.0 mg/kg/injection, schedule: Q04DX002 (ip), vehicle: Klucel (hydroxypropylcellulose) (HPC) 110 % of control

NC(N)=Nc1ccc(C(=O)Oc2ccc(OC(=O)c3cccc(N=C(N)N)c3)cc2)cc1
inactive: dose: 50.0 mg/kg/injection, schedule: Q01DX009 (ip), vehicle: water 96 % of control | dose: 50.0 mg/kg/injection, schedule: Q04DX003 (ip), vehicle: water 90 % of control | dose: 100.0 mg/kg/injection, schedule: Q01DX009 (ip), vehicle: water 98 % of control | dose: 100.0 mg/kg/injection, schedule: Q04DX003 (ip), vehicle: water 93 % of control and 97 % of control | dose: 200.0 mg/kg/injection, schedule: Q01DX009 (ip), vehicle: water 92 % of control | dose: 200.0 mg/kg/injection, schedule: Q04DX003 (ip), vehicle: water 98 % of control and 100 % of control | dose: 400.0 mg/kg/injection, schedule: Q04DX003 (ip), vehicle: water 93 % of control and 95 % of control

COc1ccc(Cl)cc1NC(=O)c1cccc(C(=O)Nc2cc(Cl)ccc2OC)c1
inactive: [1] 92 % of control | [6] 94 % of control | [2] 93 % of control | [7] 94 % of control | [3] 104 % of control | [8] 92 % of control

Source: PubChem BioAssay AID248 (DTP/NCI, 2004)
